Test results reported in patent US20250000858A1, “FGFR TYROSINE KINASE INHIBITORS FOR THE TREATMENT OF ADVANCED SOLID TUMORS” (JANSSEN PHARMACEUTICA NV, priority 2021, published 2025).

Assay: Pharmacokinetic assessments (plasma concentrations, erdafitinib exposure; CYP2C9*3/*3 genotype)
Format: in vivo, human
Details: subjects with the CYP2C9*3/*3 genotype; 'may increase'
Description: Therefore, increased adverse reactions are monitored in subjects who are known or suspected to have CYP2C9*3/*3 genotype.

COc1cc(OC)cc(N(CCNC(C)C)c2ccc3ncc(-c4cnn(C)c4)nc3c2)c1 [erdafitinib, N-(3,5-dimethoxy-phenyl)-N′-(1-methylethyl)-N-[3-(1-methyl-1H-pyrazol-4-yl)quinoxalin-6-yl]ethane-1,2-diamine]
increase of exposure of erdafitinib: 50%
